ChEMBL document CHEMBL1136331, “Photoregulation of deacylation rate of acyl trypsin derived from photoresponsive inverse substrate” (Bioorg Med Chem Lett, 2003)

Assays:
[1] = Kinetic parameter for rate constant of deacylation step (k3) was determined
[2] = Ratio of kinetic parameter (k2) to that of kinetic parameter(Ks)
[3] = Kinetic parameter for rate constant of acylation step (k2) was determined

Structure (SMILES): N=C(N)Nc1ccc(OC(=O)c2ccc(/N=N/c3ccccc3)cc2)cc1
- k3 [1]: 0.000378 s⁻¹
- k2/Ks [2]: 151000 M⁻¹ s⁻¹
- k2 [3]: 1.06 s⁻¹

Structure (SMILES): N=C(N)Nc1ccc(OC(=O)c2ccc(/N=N\c3ccccc3)cc2)cc1
- k3 [1]: 0.000702 s⁻¹
- k2/Ks [2]: 164000 M⁻¹ s⁻¹
- k2 [3]: 7.75 s⁻¹
